In patent US12195427B2, “MASP-2 inhibitors and methods of use” (priority 2018, dated 2025):
pKi: −log10 of the molar value.

Tests used:
[1] = target: human α-thrombin (Homo sapiens (Human), UniProt P00734); assay: Enzymatic Assay for Thrombin (Boc-VPR-AMC); format: biochemical
[2] = target: MASP-2 CCP2-SP (Homo sapiens (Human), UniProt O00187); assay: MASP-2 co-crystallization, X-ray crystallography and structure analysis (H-bonds, van der Waals contacts); design: van der Waals contact distance, MASP-2 HIS 483 atom CD2 / van der Waals contact distance, MASP-2 HIS 483 atom NE2 / van der Waals contact distance, SER 654 C to compound atom / van der Waals contact distance, SER 654 O to compound atom / van der Waals contact distance, TRP 655 C to compound atom / van der Waals contact distance, MASP-2 GLY 528 atom CA / van der Waals contact distance TRP 655 atom CZ3 / van der Waals contact distance TRP 655 atom N / van der Waals contact distance TRP 655 atom CE3 / van der Waals contact distance GLY 656 atom C / van der Waals contact distance GLY 656 atom CA / van der Waals contact distance GLY 656 atom O / van der Waals contact distance, MASP-2 TYR 607 atom CD1 / van der Waals contact distance, MASP-2 PRO 606 atom O / d(C3,CA1) / d(CA1,N1)2 / d(H4,O1) / d(H4,O2) / d(O1,O2) / d(CA1,O2) / d(CA6,O1) / d(CA6,O2) / d(CA1,C5) / d(O2,H3) / d(N2,C2) / d(CA5,N2) / d(N2,C4) / d(N2,C6) / d(N2,CA3) / d(N2,O3) / d(O4,H2): unit not given beside the values;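 for Ligand-pharmacophore element distance, pharmacophore element C2: distance from averaged pharmacophore element to bound ligand; missing value means element absent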;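 for Ligand-pharmacophore element distance, pharmacophore element C3: distance from averaged pharmacophore element to bound ligand; missing value means element absent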;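 for Ligand-pharmacophore element distance, pharmacophore element C4: distance from averaged pharmacophore element to bound ligand; missing value means element absent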;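 for Ligand-pharmacophore element distance, pharmacophore element C5: distance from averaged pharmacophore element to bound ligand; missing value means element absent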
Chain of MASP-2 CCP2-SP (O00187 445-686): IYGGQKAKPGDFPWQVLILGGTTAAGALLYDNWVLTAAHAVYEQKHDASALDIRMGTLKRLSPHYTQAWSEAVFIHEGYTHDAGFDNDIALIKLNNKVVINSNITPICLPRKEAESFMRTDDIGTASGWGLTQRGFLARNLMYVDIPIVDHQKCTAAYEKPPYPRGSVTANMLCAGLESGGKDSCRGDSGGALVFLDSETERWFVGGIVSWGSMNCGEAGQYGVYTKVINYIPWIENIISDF
Chain of MASP-2 CCP2-SP (O00187 364-432 partner): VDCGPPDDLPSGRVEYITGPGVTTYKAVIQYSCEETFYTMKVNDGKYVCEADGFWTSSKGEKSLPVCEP
Summary of the method: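 Human MASP-2 CCP2-SP, untagged or 6His-tagged, was expressed in E. coli and crystallized. Crystals were soaked with inhibitor in crystallization solution, flash-cooled in liquid nitrogen, and diffracted with synchrotron X-rays (wavelength 1.0). Structures were solved by molecular replacement from 1Q3X and partially refined.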

[3] = target: MASP-2 (CCP1-CCP2-SP) (Homo sapiens (Human), UniProt O00187); assay: Enzymatic Assay for MASP-2 (fluorogenic substrate); format: biochemical
Chain of MASP-2 (CCP1-CCP2-SP) (O00187 445-686): as the sequence (O00187 445-686) above

[4] = Table A5-1 pharmacophore: distance between elements, S2/S1 region
[5] = Table A5-2 pharmacophore distance, S3/S4 region
[6] = Table A7-1, between pharmacophore elements of the bound compound
[7] = Table A8-6, nearest protein atom in cell to the left

**Q.** How did the pKi [1] turn out when `C[C@H](NC(=O)[C@H](N)CCc1ccccc1)C(=O)NCc1ccc(C(=N)N)cc1` [compound 1024] was run?
**A.** The pKi was > 6.30.

**Q.** And the “H-bond distance to MASP-2 ASP 627 atom OD1” value ([2]; Table A1 (H-Bonds), ASP 627 OD1)?
**A.** Its value is 2.74.

**Q.** What about the “H-bond distance to MASP-2 GLY 656 atom N” value ([2]; Table A1 (H-Bonds), GLY 656 N) of the same compound?
**A.** Its value is 3.06.

**Q.** What about the “H-bond distance to MASP-2 SER 628 atom O” value ([2]; Table A1 (H-Bonds), SER 628 O) of the same compound?
**A.** Its value is 2.79.

**Q.** What about the “H-bond distance to MASP-2 SER 654 atom O” value ([2]; Table A1 (H-Bonds), SER 654 O) of the same compound?
**A.** Its value is 2.86.

**Q.** What about the “H-bond distance to MASP-2 SER 657 atom O” value ([2]; Table A1 (H-Bonds), SER 657 O) of the same compound?
**A.** Its value is 2.94.

**Q.** What about the “van der Waals contact distance, MASP-2 HIS 483 atom CD2” value ([2]; Table A2-1) of the same compound?
**A.** Its value is 3.39.

**Q.** And the “van der Waals contact distance, MASP-2 TYR 607 atom CD1” value ([2]; Table A2-4)?
**A.** The value was 3.9.

**Q.** What about the “van der Waals contact distance, MASP-2 amino acid atom to compound atom” value ([2]; Table A2-7 continued: CYS 629 (CA)) of the same compound?
**A.** The value was 3.75.

**Q.** And the “van der Waals contact distance GLY 656 atom C” value ([2]; Table A2-13, MASP-2 GLY 656 C)?
**A.** The value was 3.53.

**Q.** What about the “van der Waals contact distance TRP 655 atom CZ3” value ([2]; Table A2-13, MASP-2 TRP 655 CZ3) of the same compound?
**A.** Its value is 3.86.

**Q.** And the “van der Waals contact distance TRP 655 atom N” value ([2]; Table A2-13, MASP-2 TRP 655 N)?
**A.** Its value is 3.78.

**Q.** And the “van der Waals contact distance TRP 655 atom O” value ([2]; Table A2-13, MASP-2 TRP 655 O)?
**A.** The value was 3.59.

**Q.** What about the “van der Waals contact distance SER 657 atom C” value ([2]; Table A2-14, MASP-2 SER 657 C, columns c12-c13 (inferred)) of the same compound?
**A.** Its value is 3.77.

**Q.** And the “Ligand-pharmacophore element distance, pharmacophore element C2” value ([2]; Table A4-1, element C2)?
**A.** The value was 0.

**Q.** And the “Ligand-pharmacophore element distance, pharmacophore element C3” value ([2]; Table A4-1, element C3)?
**A.** The value was 0.

**Q.** And the “Ligand-pharmacophore element distance, pharmacophore element C4” value ([2]; Table A4-1, element C4)?
**A.** The value was 0.

**Q.** What about the “Ligand-pharmacophore element distance, pharmacophore element C5” value ([2]; Table A4-1, element C5) of the same compound?
**A.** The value was 0.

**Q.** What about the “Ligand-pharmacophore element distance, pharmacophore element C6” value ([2]; Table A4-1, element C6) of the same compound?
**A.** The value was 0.

**Q.** And the “Ligand-pharmacophore element distance, pharmacophore element C7” value ([2]; Table A4-1, element C7)?
**A.** The value was 0.

**Q.** What about the “Ligand-pharmacophore element distance, pharmacophore element CA1” value ([2]; Table A4-1, element CA1) of the same compound?
**A.** Its value is 0.4.

**Q.** What about the “Ligand-pharmacophore element distance, pharmacophore element CA2” value ([2]; Table A4-1, element CA2) of the same compound?
**A.** Its value is 0.33.

**Q.** And the “Ligand-pharmacophore element distance, pharmacophore element CA3” value ([2]; Table A4-1, element CA3)?
**A.** The value was 0.

**Q.** What about the “Ligand-pharmacophore element distance, pharmacophore element CA4” value ([2]; Table A4-1, element CA4) of the same compound?
**A.** The value was 0.

**Q.** And the “Ligand-pharmacophore element distance, pharmacophore element CA5” value ([2]; Table A4-1, element CA5)?
**A.** The value was 0.

**Q.** And the “Ligand-pharmacophore element distance, pharmacophore element CA6” value ([2]; Table A4-1, element CA6)?
**A.** The value was 0.

**Q.** What about the “Ligand-pharmacophore element distance, pharmacophore element H1” value ([2]; Table A4-2, element H1) of the same compound?
**A.** Its value is 0.

**Q.** What about the “Ligand-pharmacophore element distance, pharmacophore element H2” value ([2]; Table A4-2, element H2) of the same compound?
**A.** The value was 0.

**Q.** What about the “Ligand-pharmacophore element distance, pharmacophore element H3” value ([2]; Table A4-2, element H3) of the same compound?
**A.** The value was 4.93.

**Q.** What about the “Ligand-pharmacophore element distance, pharmacophore element H4” value ([2]; Table A4-2, element H4) of the same compound?
**A.** Its value is 3.21.

**Q.** What about the “Ligand-pharmacophore element distance, pharmacophore element N1” value ([2]; Table A4-2, element N1) of the same compound?
**A.** Its value is 1.74.

**Q.** What about the “Ligand-pharmacophore element distance, pharmacophore element N2” value ([2]; Table A4-2, element N2) of the same compound?
**A.** Its value is 0.59.

**Q.** And the “Ligand-pharmacophore element distance, pharmacophore element O1” value ([2]; Table A4-2, element O1)?
**A.** Its value is 0.4.

**Q.** And the “Ligand-pharmacophore element distance, pharmacophore element O2” value ([2]; Table A4-2, element O2)?
**A.** The value was 0.4.

**Q.** And the “Ligand-pharmacophore element distance, pharmacophore element O3” value ([2]; Table A4-2, element O3)?
**A.** The value was 0.

**Q.** And the “Ligand-pharmacophore element distance, pharmacophore element O4” value ([2]; Table A4-2, element O4)?
**A.** The value was 0.

**Q.** What about the “d(CA1,N1)” value [2, 4] of the same compound?
**A.** The value was 3.55.

**Q.** What about the “d(CA1,O1)” value [2, 4] of the same compound?
**A.** Its value is 4.37.

**Q.** And the “d(CA1,O2)” value [2, 4]?
**A.** The value was 4.23.

**Q.** And the “d(H4,O1)” value [2, 4]?
**A.** The value was 3.99.

**Q.** And the “d(H4,O2)” value [2, 4]?
**A.** The value was 3.27.

**Q.** And the “d(O1,O2)” value [2, 4]?
**A.** Its value is 3.23.

**Q.** And the “d(N2,CA2)” value [2, 5]?
**A.** The value was 6.19.

**Q.** What about the “d(O2,H3)” value [2, 5] of the same compound?
**A.** The value was 5.45.

**Q.** What about the “d(O2,N2)” value [2, 5] of the same compound?
**A.** Its value is 2.78.

**Q.** What about the “a(CA1, O1, O2)” value ([2]; Table A6-1 pharmacophore angle) of the same compound?
**A.** The value was 109.78.

**Q.** And the “a(O1, O2, H4)” value ([2]; Table A6-1 pharmacophore angle)?
**A.** Its value is 128.26.

**Q.** And the “A(N1, CA1, O1) a)” value ([2]; Table A6-1 pharmacophore angle, all compounds with protonatable center N1 except Methyl-amino-pyridine)?
**A.** Its value is 163.32.

**Q.** And the “a(O1, O2, H3)” value ([2]; Table A6-2 pharmacophore angle)?
**A.** Its value is 151.79.

**Q.** And the “a(O1, O2, N2)” value ([2]; Table A6-2 pharmacophore angle)?
**A.** Its value is 136.56.

**Q.** What about the “a(O2, N2, CA2)” value ([2]; Table A6-2 pharmacophore angle) of the same compound?
**A.** The value was 154.55.

**Q.** What about the “Pharmacophore torsion angle a(H4, O1, O2, H3)” value [2, 6] of the same compound?
**A.** The value was 44.69.

**Q.** And the “Pharmacophore torsion angle a(H4, O1, O2, N2)” value [2, 6]?
**A.** The value was 125.09.

**Q.** And the “Pharmacophore torsion angle a(N1, CA1, O2, H4)” value [2, 6]?
**A.** The value was −97.21.

**Q.** What about the “Pharmacophore torsion angle a(O1, H4, O2, CA1)” value [2, 6] of the same compound?
**A.** The value was −63.40.

**Q.** What about the “Pharmacophore torsion angle a(O1, O2, N2, CA2)” value ([2]; Table A7-2, between pharmacophore elements of the bound compound) of the same compound?
**A.** The value was 139.71.

**Q.** And the “Pharmacophore protein distance to MET_658 (first MET_658 column)” value ([2]; Table A8-6, 6th residue column, nearest protein atom in cell to the left)?
**A.** Its value is 1.94.

**Q.** What about the “Pharmacophore protein distance to MET_658 (second MET_658 column)” value ([2]; Table A8-6, 9th residue column, nearest protein atom in cell to the left) of the same compound?
**A.** The value was 3.26.

**Q.** What about the “Pharmacophore protein distance to GLY_528” value [2, 7] of the same compound?
**A.** The value was 3.60.

**Q.** And the “Pharmacophore protein distance to PHE_529” value [2, 7]?
**A.** Its value is 3.20.

**Q.** What about the “Pharmacophore protein distance to PRO_608” value [2, 7] of the same compound?
**A.** The value was 3.95.

**Q.** What about the “Pharmacophore protein distance to SER_611” value [2, 7] of the same compound?
**A.** Its value is 2.54.

**Q.** And the “Pharmacophore protein distance to TRP_655” value ([2]; Table A8-6, pharmacophore elements C6, CA3, O3, H1, nearest protein atom in cell to the left)?
**A.** Its value is 3.53.

**Q.** And the pKi [3]?
**A.** The pKi was > 6.30.
